Legend:
[1] = test system: ossifications (ankle region and popliteal fossa area); assay: Topical treatment of a child with progressive osseous heteroplasia (Example 3); format: in vivo, human; conditions: before the topical treatment; given with non steroidal anti-inflammatory medications
Procedure: A child, weighing 27 kg, suffering from progressive osseous heteroplasia presented with significant ossifications that were responsible for a limitation of function in the right foot: in the ankle region, with an estimated surface area of 10 cm×5 cm, and in the popliteal fossa area with 2 patches, having an estimated surface area of 6 cm×4 cm each.
These exploratory tests were carried out in addition to the usual checkup including the exploration of renal function and liver function, as well as calcium and phosphate checkup.

[2] = test system: dystrophic calcification; conditions: cited from earlier work
[3] = injectable solution of 0.15 g/mL with sodium phosphate dodecahydrate 1.21%, packaged in an ampoule; cited from earlier work

Structure (SMILES) | improvement under earlier treatment [1] | superficial calcifications ([2]; after six months, 10% compresses twice a week, with topical corticosteroid, acetic acid compresses and oral antibiotics) | pains ([2]; after six months, 10% compresses, combined treatment) | re-epithelialisation over the wound regions ([2]; three months later (after the first six months)) | stability [3]
CC(O)(P(=O)(O)O)P(=O)(O)O [disodium etidronate] | No improvement | – | – | – | –
O=S([O-])([O-])=S.[Na+].[Na+] [sodium thiosulfate] | – | dissolved | progressively abated | almost complete re-epithelialisation | 3 years

From patent publication US9629872B2, “Sodium thiosulphate for the treatment of ectopic calcifications” (Institut National de la Sante et de la Recherche Medicale …, priority 2012, dated 2017)
